This is an account of results in patent US20040142888A1, “Modulators of RabGGT and methods of use thereof” (priority 2002, published 2004).

In the experiment the target is T1, rat RabGGT (Rattus norvegicus, UniProt Q08602+Q08603).
T1 construct: purchased Calbiochem 345855; host or cells: Sf9/baculovirus
T1 sequence (Q08602 1-567): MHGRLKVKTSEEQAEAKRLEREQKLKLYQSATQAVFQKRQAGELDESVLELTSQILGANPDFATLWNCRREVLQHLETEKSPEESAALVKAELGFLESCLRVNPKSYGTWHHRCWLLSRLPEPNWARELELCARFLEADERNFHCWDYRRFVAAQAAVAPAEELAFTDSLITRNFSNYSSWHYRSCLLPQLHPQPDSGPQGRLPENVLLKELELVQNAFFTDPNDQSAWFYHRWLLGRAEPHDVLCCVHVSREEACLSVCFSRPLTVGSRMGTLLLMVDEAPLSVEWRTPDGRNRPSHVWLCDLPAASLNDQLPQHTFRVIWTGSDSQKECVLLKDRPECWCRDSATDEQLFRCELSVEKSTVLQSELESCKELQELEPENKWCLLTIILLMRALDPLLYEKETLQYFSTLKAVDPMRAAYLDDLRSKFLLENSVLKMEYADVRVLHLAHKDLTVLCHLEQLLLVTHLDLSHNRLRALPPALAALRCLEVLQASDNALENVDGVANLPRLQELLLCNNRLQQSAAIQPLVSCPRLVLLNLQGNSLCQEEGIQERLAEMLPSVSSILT
T1 sequence (Q08603 1-331): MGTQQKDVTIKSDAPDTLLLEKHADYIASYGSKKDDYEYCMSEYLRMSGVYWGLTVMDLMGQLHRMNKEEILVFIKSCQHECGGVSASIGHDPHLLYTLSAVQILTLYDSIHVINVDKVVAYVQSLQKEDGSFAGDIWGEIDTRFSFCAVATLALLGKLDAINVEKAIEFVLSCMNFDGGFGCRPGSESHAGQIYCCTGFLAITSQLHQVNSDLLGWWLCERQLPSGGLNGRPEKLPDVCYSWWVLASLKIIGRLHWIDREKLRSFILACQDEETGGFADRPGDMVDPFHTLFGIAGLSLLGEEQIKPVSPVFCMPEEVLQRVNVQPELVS
Kind of experiment: RabGGT filter binding assay: transfer of (3H)geranylgeranyl from 3H-GGPP to recombinant Rab3A. The format is biochemical. The settings on record: for IC90/IC50: RabGGT inhibition. The text has this:
The effect of compounds 7A through 7T on RabGGT activity was quantified using a filter binding assay that measures the transfer of (3H) geranylgeranyl groups (GG) from all-trans-(3H)geranylgeranyl pyrophosphate (3H-GGPP) to recombinant Rab3A protein (Shen & Seabra, 1996, JBC, 271 :3692; Armstrong et al., 1996, Methods in Enzymology 257:30). Modifications to published protocols are noted explicitly below.
Recombinant rat RabGGT, expressed using the Sf9/baculovirus system, was purchased from Calbiochem (cat. no. 345855). Recombinant unprenylated human Rab3A was obtained from Panvera.(cat. no. P2173). Human REβ-1, expressed in Sf9 cells, was obtained from Calbiochem (cat. no. 554000). Tritium labeled geranylgeranyl pyrophosphate was purchased from Amersham Pharmacia Biotech (15 Ci/mmol). Unlabeled GGPP was purchased from Sigma (cat. no. G-6025).
The reaction buffer contained 50 mM HEPES pH7.4, 5 mM MgCl2, 1 mM DTT, 1 mM Nβ-40. Solutions of RabGGT, Rab3A, REP-1, and GGPP were prepared in this reaction buffer. Final protein concentrations in the reaction mixture were modified from the published protocols, with the standard reaction mixture containing 2 μM Rab3A, 0.2 μM REP-1, 5 μM unlabeled GGPP, 0.5 μM labeled GGPP, and 10-50 nM RabGGT in a total volume of 20 μl. The specific activity of (3H)GGPP used in the assay was 3000 dpm/pmol.
Compounds were prepared as 50 mM stocks in DMSO and diluted to give an appropriate concentration for the assay as a 20% DMSO stock. 2 μl of the diluted compound stock was added to a 20 μl reaction to give a final DMSO concentration of 2% in the assay.
The order of addition of reagents was altered from the published protocols. Reaction mixtures were prepared by sequentially adding Rab3A and REP-1 proteins to the reaction buffer, followed by compound and RabGGT enzyme to a volume of 18 μl. Reactions were initiated by the addition of 2 μl of a solution that contained unlabeled and labeled GGPP. After a 30 minute incubation at 37° C., 1 ml of stop solution (1 volume of concentrated HCl acid with 9 volumes of ethanol) was added and mixed. The solution was then incubated at room temperature for 1 hour to completely precipitate proteins.
The precipitate was collected by vacuum filtration using a vacuum filtration manifold (Millipore model 1225) onto 25 mm GF/A filters (Whatman) that were prewetted with ethanol. The tubes were rinsed twice with 1 ml ethanol which was also poured over the filters. Each filter was subsequently washed three times with 2 mls of ethanol per wash, dried under vacuum, and then put in scintillation vials. Four milliliters of scintillation fluid was added and the radioactivity was quantified on a scintillation counter. Several types of blank reactions were conducted including withholding the enzyme, the substrate, or the accessory protein REP-1, or replacing the compound solution with a 20% DMSO solution. For the substrate titration experiment, the equimolar amounts of Rab3A and REP-1 were mixed and preincubated for 30 min at room temperature before addition of the enzyme.
The data was analyzed by non-linear regression analysis methods using the program PRIZM (GraphPad Software, Inc.). Inhibition constants were obtained by analyzing the data using the one site competition equation provided by the software. FIG. 7 presents a typical data series obtained for compound 7B using these methods.

[1] abbreviates: recombinant rat RabGGT, Rab3A, REP-1, 30 minute at 37° C.

Regarding `N#Cc1ccc2c(c1)CN(S(=O)(=O)N1CCCCC1)[C@H](Cc1ccccc1)CN2Cc1cnc[nH]1` [Compound 7B], the IC90/IC50 is given as 9. The IC50 (Table 7) amounted to 21 nM. Further, under setting [1], the IC50 was determined as 21 nM and the IC90 was 199 nM.

Regarding `CCCS(=O)(=O)N1Cc2cc(C#N)ccc2N(Cc2cnc[nH]2)C[C@H]1Cc1ccccc1` [Compound 7H], the IC90/IC50 is reported as 5. Moreover, the 50% inhibitory concentration (IC50) (Table 7) came to 21 nM. Also, under setting [1], the half-maximal inhibitory concentration (IC50) amounted to 21 nM and the IC90 turned out to be 115 nM.

With `Cn1cncc1CN1C[C@@H](Cc2ccccc2)N(S(=O)(=O)c2cccs2)Cc2cc(C#N)ccc21` [Compound 7J], the IC90/IC50 turned out to be 5. Besides, where the note is “Table 7”, the IC50 is 12 nM. In addition, under setting [1], the IC50 was 12 nM and the IC90 was found to be 58 nM.

In the case of `COc1ccc(S(=O)(=O)N2Cc3cc(C#N)ccc3N(Cc3cnc[nH]3)C[C@H]2Cc2ccccc2)cc1` [Compound 7A], the IC90/IC50 is reported as 8. Further, the IC50 (Table 7) is 36 nM. For the same compound, under setting [1], the half-inhibitory concentration (IC50) came out at 36 nM and the IC90 is 295 nM.

For the compound `COc1ccc(S(=O)(=O)N2Cc3cc(C#N)ccc3N(Cc3cncn3C)C[C@H]2Cc2ccccc2)cc1` [Compound 7I], the IC90/IC50 is on record as 6. Moreover, under “Table 7”, the half-maximal inhibitory concentration (IC50) worked out at 16 nM. Besides, under setting [1], the IC50 worked out at 16 nM and the 90% effect concentration (IC90) stood at 93 nM.
